Measured values published in US4471131A, “Novel silyl esters of N-phosphonomethylglycine” (Monsanto Company, priority 1983, dated 1984).

What was measured:
Test in all cases: post-emergence herbicidal activity, greenhouse
Type in all cases: in vivo
Conditions in all cases: Table II
Barnyardgrass = test system: Barnyardgrass
Text: (§1) A good grade of top soil is placed in aluminum pans having holes in the bottom and compacted to a depth of 0.95 to 1.27 cm. from the top of the pan. A predetermined number of seeds of each of several dicotyledonous and moncotyledonous annual plant species and/or vegetative propagules for the perennial plant species were placed on the soil and pressed into the soil surface. The seeds and/or vegetative propagules are covered with soil and leveled. The pans are then placed on a sand bench in the greenhouse and watered from below as needed. After the plants reach the desired age (two to three weeks), each pan, except for the control pans, is removed individually to a spraying chamber and sprayed by means of an atomizer at the rates noted. In the spray solution is an amount of an emulsifying agent mixture to give a spray solution or suspension which contains about 0.4% by weight of the emulsifier. The spray solution or suspension contains a sufficient amount of the candidate chemical in order to give application rates corresponding to those set forth in the tables. The pans were returned to the greenhouse and watered as before and the injury to the plants as compared to the control is observed at approximately two and four weeks and the results recorded. In the tables, WAT means "weeks after treatment."
(§2) The post-emergent herbicidal activity index used in Tables II and III is as follows:
(§3) The plant species utilized in these tests are identified by letter in accordance with the following legend: […]

Canada Thistle = test system: Canada Thistle
Text: as §1, §2, §3

Cocklebur = test system: Cocklebur
Text: as §1, §2, §3

Common Lambsquarters = test system: Common Lambsquarters
Text: as §1, §2, §3

Downy Brome = test system: Downy Brome
Text: as §1, §2, §3

Johnsongrass = test system: Johnsongrass
Text: as §1, §2, §3

Morningglory = test system: Morningglory
Text: as §1, §2, §3

Pennsylvania Smartweed = test system: Pennsylvania Smartweed
Text: as §1, §2, §3

Quackgrass = test system: Quackgrass
Text: as §1, §2, §3

Velvetleaf = test system: Velvetleaf
Text: as §1, §2, §3

Yellow Nutsedge = test system: Yellow Nutsedge
Text: as §1, §2, §3

[1] = 2 WAT, 5.6 kg/h, formulated immediately prior to treatment
[2] = 2 WAT, 11.2 kg/h, formulated immediately prior to treatment
[3] = 4 WAT, 5.6 kg/h, formulated immediately prior to treatment
[4] = 4 WAT, 11.2 kg/h, formulated immediately prior to treatment
[5] = 2 WAT, 5.6 kg/h, formulated in anhydrous tetrahydrofuran
[6] = 2 WAT, 11.2 kg/h, formulated in anhydrous tetrahydrofuran
[7] = 4 WAT, 5.6 kg/h, formulated in anhydrous tetrahydrofuran
[8] = 4 WAT, 11.2 kg/h, formulated in anhydrous tetrahydrofuran

In the case of `CC(C)(C)[Si](C)(C)OC(=O)CNCP(=O)(O[Si](C)(C)C(C)(C)C)O[Si](C)(C)C(C)(C)C` [Ex. 9, Glycine, N--((Bis[((1,1-Dimethylethyl)Dimethylsilyl)Oxy]Phosphinyl)Methyl),-(1,1-Dimethylethyl)Dimethylsilylester], the “Plant Response Index (K)” value (Barnyardgrass; [1]) is reported as 1 (25-49% inhibition), the “Plant Response Index (K)” value (Barnyardgrass; [2]) is reported as 1 (25-49% inhibition) and the “Plant Response Index (K)” value (Barnyardgrass; [3]) is reported as 1 (25-49% inhibition). The “Plant Response Index (K)” value (Barnyardgrass; [4]) was 2 (50-74% inhibition), the “Plant Response Index (A)” value (Canada Thistle; [1]) was 1 (25-49% inhibition) and the “Plant Response Index (A)” value (Canada Thistle; [2]) was 1 (25-49% inhibition). For the same compound, the “Plant Response Index (A)” value (Canada Thistle; [3]) was 2 (50-74% inhibition), the “Plant Response Index (A)” value (Canada Thistle; [4]) was 1 (25-49% inhibition) and the “Plant Response Index (B)” value (Cocklebur; [1]) was 1 (25-49% inhibition). For the same compound, the “Plant Response Index (B)” value (Cocklebur; [2]) was 2 (50-74% inhibition), the “Plant Response Index (B)” value (Cocklebur; [3]) was 2 (50-74% inhibition) and the “Plant Response Index (B)” value (Cocklebur; [4]) was 2 (50-74% inhibition). For the same compound, the “Plant Response Index (E)” value (Common Lambsquarters; [1]) was 0 (0-24% inhibition), the “Plant Response Index (E)” value (Common Lambsquarters; [2]) was 0 (0-24% inhibition) and the “Plant Response Index (E)” value (Common Lambsquarters; [3]) was 1 (25-49% inhibition). The “Plant Response Index (E)” value (Common Lambsquarters; [4]) was 2 (50-74% inhibition), the “Plant Response Index (J)” value (Downy Brome; [1]) was 0 (0-24% inhibition) and the “Plant Response Index (J)” value (Downy Brome; [2]) was 1 (25-49% inhibition). For the same compound, the “Plant Response Index (J)” value (Downy Brome; [3]) was 1 (25-49% inhibition), the “Plant Response Index (J)” value (Downy Brome; [4]) was 1 (25-49% inhibition) and the “Plant Response Index (I)” value (Johnsongrass; [1]) was 1 (25-49% inhibition). For the same compound, the “Plant Response Index (I)” value (Johnsongrass; [2]) was 1 (25-49% inhibition), the “Plant Response Index (I)” value (Johnsongrass; [3]) was 1 (25-49% inhibition) and the “Plant Response Index (I)” value (Johnsongrass; [4]) was 1 (25-49% inhibition). For the same compound, the “Plant Response Index (D)” value (Morningglory; [1]) was 2 (50-74% inhibition), the “Plant Response Index (D)” value (Morningglory; [2]) was 2 (50-74% inhibition) and the “Plant Response Index (D)” value (Morningglory; [3]) was 2 (50-74% inhibition). For the same compound, the “Plant Response Index (D)” value (Morningglory; [4]) was 2 (50-74% inhibition), the “Plant Response Index (F)” value (Pennsylvania Smartweed; [1]) was 1 (25-49% inhibition) and the “Plant Response Index (F)” value (Pennsylvania Smartweed; [2]) was 1 (25-49% inhibition). For the same compound, the “Plant Response Index (F)” value (Pennsylvania Smartweed; [3]) was 1 (25-49% inhibition), the “Plant Response Index (F)” value (Pennsylvania Smartweed; [4]) was 1 (25-49% inhibition) and the “Plant Response Index (H)” value (Quackgrass; [1]) was 0 (0-24% inhibition). The “Plant Response Index (H)” value (Quackgrass; [2]) was 0 (0-24% inhibition), the “Plant Response Index (H)” value (Quackgrass; [3]) was 0 (0-24% inhibition) and the “Plant Response Index (H)” value (Quackgrass; [4]) was 0 (0-24% inhibition). For the same compound, the “Plant Response Index (C)” value (Velvetleaf; [1]) was 1 (25-49% inhibition), the “Plant Response Index (C)” value (Velvetleaf; [2]) was 2 (50-74% inhibition) and the “Plant Response Index (C)” value (Velvetleaf; [3]) was 1 (25-49% inhibition). For the same compound, the “Plant Response Index (C)” value (Velvetleaf; [4]) was 2 (50-74% inhibition), the “Plant Response Index (G)” value (Yellow Nutsedge; [1]) was 1 (25-49% inhibition) and the “Plant Response Index (G)” value (Yellow Nutsedge; [2]) was 1 (25-49% inhibition). The “Plant Response Index (G)” value (Yellow Nutsedge; [3]) was 2 (50-74% inhibition) and the “Plant Response Index (G)” value (Yellow Nutsedge; [4]) was 2 (50-74% inhibition).

With “Glycine, N-((Bis[((1,1-Dimethylethyl)Diphenylsilyl)oxy]-Phosphinyl)-Methyl)-, [(1,1-Dimethylethyl)Diphenylsilyl]Ester, (75%); Silanol, (1,1-Dimethylethyl)Diphenyl-, (25%-Mixture) [Ex. 4]” the “Plant Response Index (K)” value (Barnyardgrass; [5]) was 1 (25-49% inhibition), the “Plant Response Index (K)” value (Barnyardgrass; [6]) was 1 (25-49% inhibition) and the “Plant Response Index (K)” value (Barnyardgrass; [7]) was 1 (25-49% inhibition). The “Plant Response Index (K)” value (Barnyardgrass; [8]) was 1 (25-49% inhibition), the “Plant Response Index (A)” value (Canada Thistle; [5]) was 0 (0-24% inhibition) and the “Plant Response Index (A)” value (Canada Thistle; [6]) was 2 (50-74% inhibition). For the same compound, the “Plant Response Index (A)” value (Canada Thistle; [7]) was 0 (0-24% inhibition), the “Plant Response Index (A)” value (Canada Thistle; [8]) was 2 (50-74% inhibition) and the “Plant Response Index (B)” value (Cocklebur; [5]) was 1 (25-49% inhibition). For the same compound, the “Plant Response Index (B)” value (Cocklebur; [6]) was 2 (50-74% inhibition), the “Plant Response Index (B)” value (Cocklebur; [7]) was 1 (25-49% inhibition) and the “Plant Response Index (B)” value (Cocklebur; [8]) was 2 (50-74% inhibition). For the same compound, the “Plant Response Index (E)” value (Common Lambsquarters; [5]) was 0 (0-24% inhibition), the “Plant Response Index (E)” value (Common Lambsquarters; [6]) was 2 (50-74% inhibition) and the “Plant Response Index (E)” value (Common Lambsquarters; [7]) was 0 (0-24% inhibition). For the same compound, the “Plant Response Index (E)” value (Common Lambsquarters; [8]) was 3 (75-99% inhibition), the “Plant Response Index (J)” value (Downy Brome; [5]) was 0 (0-24% inhibition) and the “Plant Response Index (J)” value (Downy Brome; [6]) was 0 (0-24% inhibition). For the same compound, the “Plant Response Index (J)” value (Downy Brome; [7]) was 0 (0-24% inhibition), the “Plant Response Index (J)” value (Downy Brome; [8]) was 0 (0-24% inhibition) and the “Plant Response Index (I)” value (Johnsongrass; [5]) was 0 (0-24% inhibition). For the same compound, the “Plant Response Index (I)” value (Johnsongrass; [6]) was 0 (0-24% inhibition), the “Plant Response Index (I)” value (Johnsongrass; [7]) was 0 (0-24% inhibition) and the “Plant Response Index (I)” value (Johnsongrass; [8]) was 1 (25-49% inhibition). For the same compound, the “Plant Response Index (D)” value (Morningglory; [5]) was 1 (25-49% inhibition), the “Plant Response Index (D)” value (Morningglory; [6]) was 2 (50-74% inhibition) and the “Plant Response Index (D)” value (Morningglory; [7]) was 1 (25-49% inhibition). The “Plant Response Index (D)” value (Morningglory; [8]) was 2 (50-74% inhibition), the “Plant Response Index (F)” value (Pennsylvania Smartweed; [5]) was 1 (25-49% inhibition) and the “Plant Response Index (F)” value (Pennsylvania Smartweed; [6]) was 2 (50-74% inhibition). For the same compound, the “Plant Response Index (F)” value (Pennsylvania Smartweed; [7]) was 0 (0-24% inhibition), the “Plant Response Index (F)” value (Pennsylvania Smartweed; [8]) was 2 (50-74% inhibition) and the “Plant Response Index (H)” value (Quackgrass; [5]) was 0 (0-24% inhibition). The “Plant Response Index (H)” value (Quackgrass; [6]) was 1 (25-49% inhibition), the “Plant Response Index (H)” value (Quackgrass; [7]) was 0 (0-24% inhibition) and the “Plant Response Index (H)” value (Quackgrass; [8]) was 2 (50-74% inhibition). For the same compound, the “Plant Response Index (C)” value (Velvetleaf; [5]) was 0 (0-24% inhibition), the “Plant Response Index (C)” value (Velvetleaf; [6]) was 1 (25-49% inhibition) and the “Plant Response Index (C)” value (Velvetleaf; [7]) was 0 (0-24% inhibition). The “Plant Response Index (C)” value (Velvetleaf; [8]) was 1 (25-49% inhibition), the “Plant Response Index (G)” value (Yellow Nutsedge; [5]) was 0 (0-24% inhibition) and the “Plant Response Index (G)” value (Yellow Nutsedge; [6]) was 0 (0-24% inhibition). The “Plant Response Index (G)” value (Yellow Nutsedge; [7]) was 1 (25-49% inhibition) and the “Plant Response Index (G)” value (Yellow Nutsedge; [8]) was 2 (50-74% inhibition).
